Laboratory results taken from patent US20110002989A1, “METHODS, DOSAGE FORMS AND KITS FOR ADMINISTERING ZIPRASIDONE WITHOUT FOOD” (Pfizer Inc., priority 2008, published 2011).
Structures can show the parent of a compound that is named as a salt.

How the values were obtained:
[1] = In vitro dissolution test in 0.01 N HCl simulated gastric buffer pH 2.0 (MDC and AUC90); assay type: physicochemical; settings: for AUC90 / MDC: 200 μgA/mL if all dissolved, pH 2.0, 37° C., 100 rpm; for AUC Enhancement Relative to Control 1: AUC90, pH 2.0 simulated gastric buffer; for AUC Enhancement Relative to Control 1 / MDC Enhancement Relative to Control 1: 37° C.; for MDC Enhancement Relative to Control 1: pH 2.0 simulated gastric buffer
Description: An in vitro dissolution test may be performed by adding the test form of ziprasidone to a dissolution test media consisting of a simulated gastric buffer (GB) solution of 0.01 N HCl at pH 2.0.
In such a test, two end-points are assessed: 1) the maximum dissolved drug concentration (MDC) of ziprasidone in the test media, and 2) the area under the concentration versus time curve of dissolved ziprasidone in the in vitro dissolution test. More specifically, in the in vitro use environment, the concentration of dissolved ziprasidone over any 90-minute period from about 0 to about 270 minutes following introduction to the use environment is measured.
An in vitro test to evaluate enhanced ziprasidone dissolution rate in aqueous solution can be conducted by adding with agitation a sufficient quantity of test ziprasidone form to the test medium, such that if all the ziprasidone dissolved, the theoretical concentration of ziprasidone would exceed the equilibrium concentration provided by the control ziprasidone form by a factor of at least 2, and preferably by a factor of at least 10. Performing the test at this concentration will ensure that the MDC of ziprasidone can be determined.
Then, the concentration of dissolved ziprasidone is measured as a function of time by sampling the test medium and plotting ziprasidone concentration in the test medium versus time so that the dissolution rate can be ascertained. The MDC is taken to be the maximum value of dissolved ziprasidone measured over the duration of the test.
During such a test, the concentration of “dissolved drug” should be measured using standard analytical techniques, including high-performance liquid chromatography (HPLC), ultraviolet (UV) absorption, or other standard methods known in the art. When using solution techniques, such as HPLC, the test solution should be either filtered or centrifuged, to avoid large drug particulates that would give an erroneous determination.
“Dissolved drug” is typically taken as that material that either passes a 0.45 μm syringe filter or, alternatively, the material that remains in the supernatant following centrifugation. Filtration can be conducted using a 13 mm, 0.45 μm polyvinylidine difluoride syringe filter sold by Scientific Resources under the trademark TITAN®. Centrifugation is typically carried out in a polypropylene microcentrifuge tube by centrifuging at 13,000 G for 60 seconds. Other similar filtration or centrifugation methods can be employed and useful results obtained. For example, using other types of microfilters may yield values somewhat higher or lower (±10-40%) than that obtained with the filter specified above but will still allow identification of preferred dissolution rate-improved forms.
A specific example of a dissolution test for ascertaining solubility and dissolution rate of a test ziprasidone form is as follows: First, a sufficient amount of the test form is placed into a dissolution flask such that the concentration of ziprasidone would have been 200 μgA/mL if all the ziprasidone dissolved. A simulated GB solution at pH 2.0 is then added and the mixture stirred at a stirred speed of 100 rpm. The test is performed at 37° C. Using UV probes, the concentration of dissolved ziprasidone is then measured over time for at least 90 minutes. The formulation is considered to be a solubility-improved form or dissolution rate-improved form of ziprasidone if it provides at least one of (1) a MDC that is greater than that of the control, (2) an AUC90 that is greater than that of the control, or (3) both (1) and (2). The control formulation, as discussed above, is crystalline ziprasidone HCl monohydrate as is used in the GEODON/ZELDOX™ commercial capsules.
The following test was used to evaluate various ziprasidone formulations. […]

[2] = depending on the dose, healthy volunteers; cited from earlier work

AUC90 ([1]; hydrochloride monohydrate)	MDC ([1]; hydrochloride monohydrate)	AUC90 [1]	MDC [1]	AUC Enhancement Relative to Control 1 [1]	MDC Enhancement Relative to Control 1 [1]	Molecule	enhanced absorption when given with food [2]
		6.1 mg·min/mL	76 μgA/mL	3.7 fold	3.0 fold	NC(CC(=O)O)C(=O)O.O=C1Cc2cc(CCN3CCN(c4nsc5ccccc45)CC3)c(Cl)cc2N1 [Example 10, ziprasidone aspartate]	
		2.4 mg·min/mL	33 μgA/mL	1.5 fold	1.3 fold	ziprasidone citrate [Example 11]	
		4.9 mg·min/mL	59 μgA/mL	3.0 fold	2.3 fold	ziprasidone succinate [Example 12]	
		6.1 mg·min/mL	91 μgA/mL	3.7 fold	3.6 fold	ziprasidone tartrate [Example 9]	
		3.8 mg·min/mL	54 μgA/mL	2.3 fold	2.1 fold	ziprasidone tosylate [Example 8]	

The next lines start with the molecule.

Molecule	AUC90 ([1]; hydrochloride monohydrate)	MDC ([1]; hydrochloride monohydrate)	AUC90 [1]	MDC [1]	AUC Enhancement Relative to Control 1 [1]	MDC Enhancement Relative to Control 1 [1]	enhanced absorption when given with food [2]
O=C1Cc2cc(CCN3CCN(c4nsc5ccccc45)CC3)c(Cl)cc2N1 [Control 1, ziprasidone hydrochloride monohydrate, reference compound]	1.6 mg·min/mL	25 μgA/mL					
O=C1Cc2cc(CCN3CCN(c4nsc5ccccc45)CC3)c(Cl)cc2N1 [Example 6, ziprasidone mesylate]			9.0 mg·min/mL	140 μgA/mL	5.5 fold	5.5 fold	
O=C1Cc2cc(CCN3CCN(c4nsc5ccccc45)CC3)c(Cl)cc2N1 [Example 7, ziprasidone free base]			7.0 mg·min/mL	85 μgA/mL	4.3 fold	3.3 fold	
O=C1Cc2cc(CCN3CCN(c4nsc5ccccc45)CC3)c(Cl)cc2N1 [Ziprasidone, 5-[2-[4-(1,2-benzisothiazol-3-yl)-1-piperazinyl]ethyl]-6-chloro-1,3-dihydro-2H-indol-2-one]							approximately 100%
